Results from ChEMBL document CHEMBL1149946, “The conformation of cyclosporin a bound to cyclophilin is altered (once again) following binding to calcineurin: an analysis of receptor-ligand-receptor interactions” (Bioorg Med Chem Lett, 1992).

Experiment: Compound was evaluated for its binding affinity towards cyclophilin (Cyp)

SMILES	Kd [nM]
C/C=C/CC(C)(C)[C@@H](O)[C@H]1C(=O)N[C@@H](CC)C(=O)N(C)CC(=O)N(C)[C@@H](CC(C)C)C(=O)N[C@@H](C(C)C)C(=O)N(C)[C@@H](CC(C)C)C(=O)N[C@@H](C)C(=O)N[C@@H](C)C(=O)N(C)[C@@H](CC(C)C)C(=O)N(C)[C@@H](CC(C)C)C(=O)N(C)[C@@H](C(C)C)C(=O)N1C	500
C/C=C/C[C@@H](C)[C@H](O)[C@H]1C(=O)N[C@@H](CC)C(=O)N(C)CC(=O)N(C)[C@@H](CC(C)C)C(=O)N[C@H](C(C)C)C(=O)N(C)CC(=O)N[C@@H](C)C(=O)N[C@H](C)C(=O)N(C)[C@H](CC(C)C)C(=O)N(C)[C@H](CC(C)C)C(=O)N(C)[C@H](C(C)C)C(=O)N1C	13
